Test results published in paper PMC4658428 (Frontiers in Microbiology, 2015).

Tests used:
LdtR Wild type = LdtR Wild type (Candidatus Liberibacter asiaticus, UniProt A0ABN4AZS1)
B. subtilis cells = type: cell-based, Bacillus subtilis
[1] = system: S. meliloti strain SMP2A (ΔldtRSMc-pBBR1MCS-5); type: cell-based
[2] = system: S. meliloti strain SMP2B (ΔldtRSMc-pBBR1MCS-5::LdtR); type: cell-based
WT LdtR [3] = type: binding, Liberibacter asiaticus
[4] = system: S. meliloti strain SMP5 (1021-pBBR1MCS-5); type: cell-based, Sinorhizobium meliloti
WT LdtR [5] = type: biochemical, Liberibacter asiaticus
LdtR = conditions: cited from earlier work
[6] = system: WT LdtR, lacZ reporter in B. subtilis strain BS6; type: cell-based, Bacillus subtilis
ST1710 = conditions: read-out: affinity value; cited from earlier work
[7] = target: LdtR wild type (Liberibacter asiaticus); experiment: SEC
[8] = system: LdtR WT (Liberibacter asiaticus); experiment: EMSA

CCc1oc2ccccc2c1C(=O)c1cc(Br)c(O)c(Br)c1 [benzbromarone]
N (LdtR Wild type): 0.34 ± 0.08 | ΔG (LdtR Wild type): -7.5 kcal/mol | ΔH (LdtR Wild type): -3.0 ± 1.0 kcal/mol | ΔS (LdtR Wild type): 14.9 cal/mol/deg | concentrations found to be toxic to the cells (B. subtilis cells): higher than 5 μM | Growth rate constant, k [1]: 0.042 ± 0.002 generations/h | Mean generation time [1]: 23.8 h | Growth rate constant, k [2]: 0.045 ± 0.002 generations/h | Mean generation time [2]: 22.2 h | increase of the duplication time on addition of benzbromarone [2]: 25% | change in melting temperature (ΔTm) (WT LdtR [3]): -1.8 ± 0.2 °C | decrease of melting temperature (WT LdtR [3]): 3.6 ± 0.2 °C | Growth rate constant, k [4]: 0.044 ± 0.003 generations/h | Mean generation time [4]: 22.7 h | increase of the duplication time on addition of benzbromarone [4]: 39% | excess of benzbromarone at which the LdtR:DNA complex is disrupted (WT LdtR [5]): 10 fold excess | effect on LdtR binding to DNA (LdtR): inhibitors of LdtR binding to DNA | reduction of β-galactosidase activity [6]: 40%

CC[n+]1c(-c2ccccc2)c2cc(N)ccc2c2ccc(N)cc21 [ethidium]
Kd (ST1710): 13.7 µM

CC[C@H](c1ccc(O)cc1)[C@@H](CC)c1ccc(O)cc1 [hexestrol]
effect on LdtR binding to DNA (LdtR): inhibitors of LdtR binding to DNA

O=C(CCc1ccc(O)cc1)c1c(O)cc(O)cc1O [phloretin]
effect on LdtR binding to DNA (LdtR): inhibitors of LdtR binding to DNA

LdtR wild type (natural protein)
stoichiometry N [7]: 2

PldtP
K half [8]: 200 nM
